ChEMBL document CHEMBL1201862, “PubChem BioAssay data set” (2004)
Active and inactive are the calls of the source.

Tests used:
[1] = target: Tyrosine-protein phosphatase non-receptor type 11 (Homo sapiens, UniProt Q06124); assay: SHP2 phosphatase inhibition, dose response, selectivity assay for STEP inhibitor project, biochemical (AID 602367); format: functional; conditions: read-out: IC50_Mean
[2] = target: Tyrosine-protein phosphatase non-receptor type 5 (Homo sapiens, UniProt P54829); assay: STEP phosphatase inhibitors, confirmation, biochemical, fluorescence intensity, uHTS hits (AID 602372); format: functional; conditions: read-out: IC50_Mean
[3] = target: T1, Small ubiquitin-related modifier 1 (Homo sapiens, UniProt P63165); assay: inhibitors of SUMO1 peptide binding, dose response, biochemical, fluorescence polarization, uHTS hits (AID 624382); format: functional; conditions: read-out: IC50_Mean
[4] = target: T2, Carboxy-terminal domain RNA polymerase II polypeptide A small phosphatase 1 (Homo sapiens, UniProt Q9GZU7); assay: inhibitors of CTDSP1, concentration-response testing, biochemical assay, absorbance-based, actives from ultra-high-throughput screening (AID 540297); format: functional
T2 sequence (Q9GZU7 whole entry): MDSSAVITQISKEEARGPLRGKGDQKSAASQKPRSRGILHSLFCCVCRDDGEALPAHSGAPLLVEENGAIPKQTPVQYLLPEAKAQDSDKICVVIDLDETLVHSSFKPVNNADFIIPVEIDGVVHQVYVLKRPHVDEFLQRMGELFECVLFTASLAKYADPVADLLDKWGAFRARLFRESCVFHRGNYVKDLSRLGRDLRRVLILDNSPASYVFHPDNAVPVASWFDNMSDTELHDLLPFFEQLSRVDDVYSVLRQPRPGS

[5] = target: Dual specificity protein phosphatase 3 (Homo sapiens, UniProt P51452); assay: VHR phosphatase inhibition, dose response, selectivity assay for STEP inhibitor project, biochemical (AID 602374); format: functional; conditions: read-out: IC50_Mean
[6] = HEp-2 cell cytotoxicity, dose response, cytotoxicity control for RSV inhibitor project, HTS (AID 2410); format: functional; conditions: human respiratory syncytial virus
[7] = target: T1, Small ubiquitin-related modifier 1; assay: inhibitors of SUMO1 partner interactions, dose response, biochemical, FRET (AID 624383); format: functional; conditions: read-out: IC50_Mean
Interleukin-8 [8] = target: T3, Interleukin-8 (Homo sapiens, UniProt P10145); assay: Dose Response confirmation of uHTS small molecule hits for cystic fibrosis induced NFkb Inhibitors in a TNFa-induced IL8 counterscreen.; format: functional; conditions: read-out: IC50_Mean
Paired box protein Pax-8 = Paired box protein Pax-8 (Homo sapiens, UniProt Q06710); assay: inhibitors of PAX8-driven TPO luciferase reporter, dose response, RMG-I cells, cherry-pick (AID 687027); format: functional, cell-based;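 also: luciferase reporter driven by Pax8 target thyroperoxidase promoter measured by SteadyGlo luminescence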
Interleukin-8 [9] = target: T3, Interleukin-8; assay: Dose Response confirmation of uHTS small molecule hits for cystic fibrosis induced NFkb Inhibitors in a PAF-induced IL8 counterscreen.; format: functional; conditions: read-out: IC50_Mean
Melanocortin receptor 4 = Melanocortin receptor 4 (Homo sapiens, UniProt P32245); format: functional, cell-based;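 also: Cell-based assay with luminescence read-out, confirmatory dose-response testing for agonist activity of biased ligands at MC4R; human U2OS cells with tagged receptor and beta-arrestin; potency of agonists that increase receptor coupling to beta-arrestin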
[10] = microbe, parasite or virus in culture; format: functional; conditions: Mycobacterium tuberculosis
[11] = test system: Streptococcus sp. 'group A'; assay: growth inhibition of control SK(-) GAS strain, dose response, counter-screen for streptokinase expression inhibitor project, luminescence, kanamycin, BacTiterGlo, confirmation (AID 1900); format: functional, organism-based
[12] = target: T4, Neuropeptide Y receptor type 1 (Homo sapiens, UniProt P25929); assay: Fluorescence-based counterscreen for agonists of NPY-Y2: cell-based high-throughput dose response assay for agonists of NPY-Y1.; format: functional
T4 sequence (P25929 whole entry): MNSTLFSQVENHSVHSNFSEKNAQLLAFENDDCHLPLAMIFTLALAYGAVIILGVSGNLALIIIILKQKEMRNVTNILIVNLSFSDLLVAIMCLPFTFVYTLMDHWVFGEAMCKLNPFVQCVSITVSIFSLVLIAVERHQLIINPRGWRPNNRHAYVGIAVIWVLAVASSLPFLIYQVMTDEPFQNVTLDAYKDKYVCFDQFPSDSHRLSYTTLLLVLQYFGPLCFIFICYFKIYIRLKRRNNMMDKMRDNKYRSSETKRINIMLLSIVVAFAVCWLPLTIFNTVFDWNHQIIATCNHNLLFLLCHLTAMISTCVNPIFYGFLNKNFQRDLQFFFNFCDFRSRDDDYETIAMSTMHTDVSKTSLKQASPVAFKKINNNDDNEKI

[13] = NIH-3T3 fibroblast cytotoxicity, dose response, cytotoxicity control, cell-based, fluorescence, Alamar Blue, secondary assay (AID 2327); format: functional;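 also: NIH-3T3 mouse fibroblasts cultured with fluconazole at 8 µg/mL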
[14] = target: T5, Polyadenylate-binding protein 1 (Homo sapiens, UniProt P11940); assay: PABP1 MLLE–PAM2 interaction inhibitors, dose response, miRNA deadenylation inhibitor project, biochemical, fluorescence polarization, Cy5-PAM2 peptide, secondary (AID 602260); format: functional; conditions: read-out: IC50_Mean
[15] = target: T6, High affinity choline transporter 1 (Homo sapiens, UniProt Q9GZV3); assay: CHT inhibitors, dose response, cell-based, 10-point CRC, membrane potential dye (AID 588401); format: functional;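 also: membrane potential dye fluorescence of choline-evoked depolarization via CHT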
T6 sequence (Q9GZV3 whole entry): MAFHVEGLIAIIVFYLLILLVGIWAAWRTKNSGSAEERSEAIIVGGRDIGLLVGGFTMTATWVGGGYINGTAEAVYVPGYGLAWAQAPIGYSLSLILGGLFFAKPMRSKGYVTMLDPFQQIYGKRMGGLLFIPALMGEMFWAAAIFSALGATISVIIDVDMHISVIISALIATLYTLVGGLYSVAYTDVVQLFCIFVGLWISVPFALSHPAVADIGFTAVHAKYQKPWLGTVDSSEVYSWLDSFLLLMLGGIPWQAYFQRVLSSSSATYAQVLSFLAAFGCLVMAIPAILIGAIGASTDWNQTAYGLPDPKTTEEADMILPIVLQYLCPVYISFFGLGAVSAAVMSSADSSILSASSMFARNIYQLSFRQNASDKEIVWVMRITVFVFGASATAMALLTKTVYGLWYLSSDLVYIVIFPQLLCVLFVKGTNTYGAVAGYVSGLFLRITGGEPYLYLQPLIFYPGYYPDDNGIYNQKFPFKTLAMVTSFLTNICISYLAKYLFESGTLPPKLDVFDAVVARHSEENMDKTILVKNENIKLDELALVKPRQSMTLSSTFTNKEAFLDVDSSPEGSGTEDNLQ

Streptokinase A = target: T7, Streptokinase A (Streptococcus pyogenes serotype M1, UniProt P10520); assay: S. pyogenes streptokinase expression inhibitors, potency, dose response, plasminogen activation absorbance, OD405 (AID 1914); format: functional, Streptococcus pyogenes M1 GAS;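 also: secreted streptokinase activity via plasminogen activation per viability signal from cell pellet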
T7 sequence (P10520 whole entry): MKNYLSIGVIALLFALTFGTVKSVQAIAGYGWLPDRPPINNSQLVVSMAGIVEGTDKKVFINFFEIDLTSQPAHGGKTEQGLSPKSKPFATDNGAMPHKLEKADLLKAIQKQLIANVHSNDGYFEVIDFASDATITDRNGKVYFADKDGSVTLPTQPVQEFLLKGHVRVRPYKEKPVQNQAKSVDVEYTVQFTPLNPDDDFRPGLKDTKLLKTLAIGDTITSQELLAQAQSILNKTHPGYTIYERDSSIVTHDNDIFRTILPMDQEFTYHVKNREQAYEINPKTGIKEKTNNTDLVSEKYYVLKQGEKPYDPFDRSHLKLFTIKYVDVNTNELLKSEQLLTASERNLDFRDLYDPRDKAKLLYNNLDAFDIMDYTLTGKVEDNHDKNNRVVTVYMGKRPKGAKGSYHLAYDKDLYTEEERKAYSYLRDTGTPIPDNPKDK

HEK293 = assay: Fluorescence-based counterscreen for potentiators or agonists of NPY-Y2: cell-based high-throughput dose response assay to identify inhibitors of cyclic nucleotide gated ion channel (CNGC) activity. In this assay, the parental HEK293 cell line transfected with a cyclic-nucleotide gated ion channel (CNGC)-based cAMP sensor is used to measure inhibition of isoproterenol-induced CNGC activity by test compound.; format: functional; conditions: Homo sapiens;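 also: stimulus is 1 µM isoproterenol at EC100 plus PDE inhibitor Ro 20-1724 at 25 µM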
[16] = C. albicans growth with fluconazole, confirmation, fluorescence, retest (AID 2467); format: functional, cell-based
[17] = target: T6, High affinity choline transporter 1; assay: CHT inhibitors, dose response, cell-based, 5-point CRC, membrane potential dye (AID 504840); format: functional
[18] = target: T5, Polyadenylate-binding protein 1; assay: PABP1 MLLE–PAM2 binding inhibitor potency, dose response, biochemical, fluorescence polarization, FITC-PAM2 peptide (AID 602259); format: functional; conditions: read-out: IC50_Mean
Streptococcus = assay: Group A Streptococcus viability loss, dose response, counter-screen for streptokinase expression inhibitor project, luminescence, BacTiterGlo (AID 1915); format: functional, organism-based;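 also: potency for reduction of bacterial viability or growth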
[19] = target: T8, Neuropeptide Y receptor type 2 (Homo sapiens, UniProt P49146); assay: Fluorescence-based cell-based high-throughput dose response assay for agonists of NPY-Y2. [Related pubchem assays: 1703 (Screening assay (CNGC inhibitors).), 1359 (Screening assay (NPY-Y2 potentiators or agonists).), 1304 (Screening assay (NPY-Y1 potentiators or agonists).), 1710 (Screening assay (NPY-Y2 agonists).), 1791 (Summary AID.)]; format: functional
T8 sequence (P49146 whole entry): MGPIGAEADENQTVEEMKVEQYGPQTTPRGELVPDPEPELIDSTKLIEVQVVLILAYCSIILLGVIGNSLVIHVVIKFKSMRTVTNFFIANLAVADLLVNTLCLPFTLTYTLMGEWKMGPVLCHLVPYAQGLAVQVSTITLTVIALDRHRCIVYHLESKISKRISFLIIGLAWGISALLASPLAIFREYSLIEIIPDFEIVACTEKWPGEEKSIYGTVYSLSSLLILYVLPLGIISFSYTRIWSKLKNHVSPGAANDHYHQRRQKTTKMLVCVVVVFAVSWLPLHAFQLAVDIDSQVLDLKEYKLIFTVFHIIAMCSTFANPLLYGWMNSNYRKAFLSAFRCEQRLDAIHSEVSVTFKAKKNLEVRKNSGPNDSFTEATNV

[20] = target: Luciferin 4-monooxygenase (Photinus pyralis, UniProt P08659); assay: firefly luciferase enzyme inhibitors, dose response, biochemical, luminescence (AID 1891)
BJ [21] = assay: cytotoxicity toward BJ-TERT fibroblasts, dose response, cell-based, RAS-independent, luminescence (AID 1933); format: functional; conditions: Homo sapiens
BJ [22] = assay: cytotoxicity toward BJ-TERT-LT-ST fibroblasts, dose response, cell-based, RAS-independent, luminescence (AID 1935); format: functional; conditions: Homo sapiens;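 also: BJ fibroblasts immortalized with TERT plus LT and ST oncogenes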
BJ [23] = assay: cells; format: functional, cell-based; conditions: Homo sapiens
[24] = target: Heat shock protein HSP 90-alpha (Homo sapiens, UniProt P07900); format: functional, organism-based
[25] = cytotoxicity toward DRD oncogenic fibroblasts, dose response, cell-based, non-viral oncogenic, luminescence (AID 1934); format: functional; conditions: Homo sapiens
HSP90 = HSP90 (Plasmodium falciparum 3D7, UniProt Q8IL32); format: functional, organism-based
[26] = Luminescence Cell-Based Dose Confirmation HTS to Identify Inhibitors of Platelet Dense Granule Release. [Related pubchem assays: 1663 (Primary HTS), 1678 (Summary of Project)]; format: functional

T3 sequence (P10145 whole entry): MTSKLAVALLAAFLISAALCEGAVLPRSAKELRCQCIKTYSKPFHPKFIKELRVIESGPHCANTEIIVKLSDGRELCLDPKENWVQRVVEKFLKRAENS
T1 sequence (P63165 whole entry, the tested form may be a part): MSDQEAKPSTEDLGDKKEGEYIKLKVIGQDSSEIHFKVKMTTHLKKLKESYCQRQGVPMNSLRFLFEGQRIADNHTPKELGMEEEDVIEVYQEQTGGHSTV
T5 sequence (P11940 whole entry): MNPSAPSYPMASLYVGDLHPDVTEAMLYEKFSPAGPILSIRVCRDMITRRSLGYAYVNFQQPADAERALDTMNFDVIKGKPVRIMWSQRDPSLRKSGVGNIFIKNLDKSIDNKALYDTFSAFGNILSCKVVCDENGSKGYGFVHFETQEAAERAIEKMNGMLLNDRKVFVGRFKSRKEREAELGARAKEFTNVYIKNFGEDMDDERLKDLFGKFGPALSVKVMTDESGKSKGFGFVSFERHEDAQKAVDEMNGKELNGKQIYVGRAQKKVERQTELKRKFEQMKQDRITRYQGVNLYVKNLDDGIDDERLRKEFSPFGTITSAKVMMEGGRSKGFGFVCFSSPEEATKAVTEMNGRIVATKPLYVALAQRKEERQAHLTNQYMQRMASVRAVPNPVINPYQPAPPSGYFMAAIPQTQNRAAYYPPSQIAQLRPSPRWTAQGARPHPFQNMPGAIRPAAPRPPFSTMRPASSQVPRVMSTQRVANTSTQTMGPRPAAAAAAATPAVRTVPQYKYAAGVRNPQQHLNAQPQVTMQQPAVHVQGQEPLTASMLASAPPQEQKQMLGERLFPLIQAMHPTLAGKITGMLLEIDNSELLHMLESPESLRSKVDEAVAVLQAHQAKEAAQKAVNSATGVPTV
Sequence of HSP90 (Q8IL32 whole entry): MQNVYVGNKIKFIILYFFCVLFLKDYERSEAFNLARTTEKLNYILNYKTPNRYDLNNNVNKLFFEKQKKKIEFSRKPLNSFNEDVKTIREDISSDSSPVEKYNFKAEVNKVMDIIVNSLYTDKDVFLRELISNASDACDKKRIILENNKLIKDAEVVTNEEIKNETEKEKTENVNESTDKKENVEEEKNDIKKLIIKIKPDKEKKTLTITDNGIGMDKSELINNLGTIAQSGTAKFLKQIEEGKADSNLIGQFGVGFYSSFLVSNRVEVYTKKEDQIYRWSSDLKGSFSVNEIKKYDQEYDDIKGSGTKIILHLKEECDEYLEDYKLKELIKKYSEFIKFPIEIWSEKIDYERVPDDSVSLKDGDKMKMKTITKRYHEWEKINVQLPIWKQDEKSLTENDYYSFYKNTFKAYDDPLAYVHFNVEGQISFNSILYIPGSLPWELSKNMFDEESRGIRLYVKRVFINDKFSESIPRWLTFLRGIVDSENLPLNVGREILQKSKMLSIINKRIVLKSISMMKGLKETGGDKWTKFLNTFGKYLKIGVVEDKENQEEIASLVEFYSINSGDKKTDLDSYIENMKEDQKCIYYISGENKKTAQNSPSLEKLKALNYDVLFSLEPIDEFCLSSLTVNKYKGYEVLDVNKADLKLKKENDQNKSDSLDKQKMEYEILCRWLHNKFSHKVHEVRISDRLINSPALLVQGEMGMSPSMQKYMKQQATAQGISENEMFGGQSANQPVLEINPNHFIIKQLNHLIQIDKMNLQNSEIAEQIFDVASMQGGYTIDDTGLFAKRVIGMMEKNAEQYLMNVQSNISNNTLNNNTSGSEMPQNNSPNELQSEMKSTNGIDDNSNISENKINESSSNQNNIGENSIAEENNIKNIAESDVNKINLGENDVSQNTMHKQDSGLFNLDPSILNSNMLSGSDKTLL
Sequence of Melanocortin receptor 4 (P32245 whole entry): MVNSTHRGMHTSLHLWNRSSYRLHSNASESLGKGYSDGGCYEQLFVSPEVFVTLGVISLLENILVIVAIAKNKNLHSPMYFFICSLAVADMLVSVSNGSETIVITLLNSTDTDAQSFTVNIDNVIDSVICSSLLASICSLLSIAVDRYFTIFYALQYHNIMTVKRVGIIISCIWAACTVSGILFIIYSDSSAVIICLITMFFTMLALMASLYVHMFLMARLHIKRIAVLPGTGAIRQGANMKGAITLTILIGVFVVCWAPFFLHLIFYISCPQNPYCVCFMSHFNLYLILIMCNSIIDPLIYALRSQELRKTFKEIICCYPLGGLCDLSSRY
Sequence of Luciferin 4-monooxygenase (P08659 whole entry): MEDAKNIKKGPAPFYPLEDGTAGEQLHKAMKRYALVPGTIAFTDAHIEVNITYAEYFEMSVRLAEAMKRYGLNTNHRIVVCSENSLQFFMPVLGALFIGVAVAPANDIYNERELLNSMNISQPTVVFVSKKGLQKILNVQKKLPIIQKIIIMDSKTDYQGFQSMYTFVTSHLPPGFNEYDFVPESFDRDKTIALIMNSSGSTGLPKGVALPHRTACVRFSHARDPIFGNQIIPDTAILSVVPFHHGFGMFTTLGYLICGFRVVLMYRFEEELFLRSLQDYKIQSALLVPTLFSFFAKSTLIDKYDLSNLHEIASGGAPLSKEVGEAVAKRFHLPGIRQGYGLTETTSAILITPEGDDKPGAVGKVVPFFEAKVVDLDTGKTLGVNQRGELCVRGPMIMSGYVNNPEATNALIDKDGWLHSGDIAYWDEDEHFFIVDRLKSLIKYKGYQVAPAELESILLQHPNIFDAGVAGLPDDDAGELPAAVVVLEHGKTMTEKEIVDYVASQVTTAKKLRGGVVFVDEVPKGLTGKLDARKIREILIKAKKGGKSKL
Sequence of Dual specificity protein phosphatase 3 (P51452 whole entry): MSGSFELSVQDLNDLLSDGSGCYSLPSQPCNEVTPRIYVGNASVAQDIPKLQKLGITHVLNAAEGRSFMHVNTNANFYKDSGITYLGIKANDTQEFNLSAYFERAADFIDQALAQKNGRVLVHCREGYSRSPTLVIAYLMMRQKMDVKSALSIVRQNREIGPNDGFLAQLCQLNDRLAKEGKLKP
Sequence of Paired box protein Pax-8 (Q06710 whole entry): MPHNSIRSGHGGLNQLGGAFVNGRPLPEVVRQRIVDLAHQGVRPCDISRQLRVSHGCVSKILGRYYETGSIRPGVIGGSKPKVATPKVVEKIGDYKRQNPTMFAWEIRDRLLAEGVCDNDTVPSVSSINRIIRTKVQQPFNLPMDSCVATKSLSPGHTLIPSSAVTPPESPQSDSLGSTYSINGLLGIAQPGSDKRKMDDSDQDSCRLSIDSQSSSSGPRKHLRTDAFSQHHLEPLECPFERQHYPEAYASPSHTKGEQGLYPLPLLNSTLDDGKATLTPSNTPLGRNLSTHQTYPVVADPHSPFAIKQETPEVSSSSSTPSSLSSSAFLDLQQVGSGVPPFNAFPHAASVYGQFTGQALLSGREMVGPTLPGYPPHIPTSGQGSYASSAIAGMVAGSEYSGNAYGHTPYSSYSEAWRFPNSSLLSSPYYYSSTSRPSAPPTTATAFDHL
Sequence of Tyrosine-protein phosphatase non-receptor type 5 (P54829 whole entry): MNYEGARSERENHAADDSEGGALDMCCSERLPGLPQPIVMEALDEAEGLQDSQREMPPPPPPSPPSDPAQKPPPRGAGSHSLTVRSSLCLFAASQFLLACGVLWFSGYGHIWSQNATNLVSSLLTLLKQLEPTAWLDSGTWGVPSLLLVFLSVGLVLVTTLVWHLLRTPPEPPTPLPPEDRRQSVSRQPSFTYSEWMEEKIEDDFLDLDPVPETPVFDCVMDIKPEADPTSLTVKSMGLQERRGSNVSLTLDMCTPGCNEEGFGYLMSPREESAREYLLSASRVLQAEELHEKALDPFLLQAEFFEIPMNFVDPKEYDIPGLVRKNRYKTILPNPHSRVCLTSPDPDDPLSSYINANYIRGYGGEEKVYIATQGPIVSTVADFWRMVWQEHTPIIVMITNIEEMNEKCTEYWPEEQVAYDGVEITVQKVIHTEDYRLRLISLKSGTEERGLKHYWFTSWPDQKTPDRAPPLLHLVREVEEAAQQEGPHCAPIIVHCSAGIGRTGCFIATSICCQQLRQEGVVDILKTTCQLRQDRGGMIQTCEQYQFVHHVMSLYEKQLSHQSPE
Sequence of Tyrosine-protein phosphatase non-receptor type 11 (Q06124 whole entry): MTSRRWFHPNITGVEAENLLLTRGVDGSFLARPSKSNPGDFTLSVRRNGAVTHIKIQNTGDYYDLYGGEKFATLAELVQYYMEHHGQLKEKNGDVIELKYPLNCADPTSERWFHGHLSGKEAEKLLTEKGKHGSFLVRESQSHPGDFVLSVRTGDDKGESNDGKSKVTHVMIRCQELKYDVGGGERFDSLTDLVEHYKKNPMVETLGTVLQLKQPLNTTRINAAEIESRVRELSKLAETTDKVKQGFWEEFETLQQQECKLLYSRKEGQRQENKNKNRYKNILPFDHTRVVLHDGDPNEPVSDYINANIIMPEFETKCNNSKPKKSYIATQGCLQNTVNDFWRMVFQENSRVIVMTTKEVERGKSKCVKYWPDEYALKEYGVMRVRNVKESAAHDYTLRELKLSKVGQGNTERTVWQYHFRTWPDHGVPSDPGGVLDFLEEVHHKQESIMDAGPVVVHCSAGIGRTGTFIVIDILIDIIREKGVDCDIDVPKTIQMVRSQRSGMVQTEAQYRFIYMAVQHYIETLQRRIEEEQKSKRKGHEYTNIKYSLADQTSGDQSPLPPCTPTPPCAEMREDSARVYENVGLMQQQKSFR

In the case of `O=C1Nc2ccc3sc4ccccc4c3c2C1=O`, the IC50 [1] is reported as 3.25 µM (active), the IC50 [2] is reported as 15.2 µM (active) and the IC50 [3] is reported as > 66.6 µM (inactive). The IC50 [4] was 4.35 µM (active), the IC50 [5] was 2.49 µM (active) and the CC50 [6] was > 50 µM (active). For the same compound, the IC50 [7] was 8.19 µM (active).

In the case of `CCOC(=O)Nc1ccc2c(c1)N(C(=O)CCN(CC)CC)c1ccccc1[S+]2[O-]` (configuration not stated), the IC50 (Interleukin-8 [8]) is reported as 1.01 µM (active), the AC50 (Paired box protein Pax-8) is reported as 7.06 µM (active) and the IC50 (Interleukin-8 [9]) is reported as 1.12 µM (active).

With `COc1ccc(-c2cnc3c(NC(C)=O)cc(-c4cc(F)ccc4OC)cn23)cc1OC` the EC50 (Melanocortin receptor 4) was > 89.2 µM (inactive).

With `N#C/C(=N/Nc1ccc(OC(F)(F)F)cc1)C(N)=S` the CC50 [10] was 8.05 µM (active), the EC50 [11] was 44.9 µM (active) and the EC50 [12] was 33.3 µM (not active). The EC50 [13] was 15 µM (active), the IC50 [14] was > 66 µM (inactive) and the IC50 [15] was 0.631 µM (active). For the same compound, the EC50 (Streptokinase A) was > 150 µM (not active), the EC50 (HEK293) was > 35.4 µM (not active) and the EC50 [16] was 1.67 µM (active). For the same compound, the IC50 [17] was 7.16 µM (active), the IC50 [18] was > 66 µM (inactive) and the EC50 (Streptococcus) was > 150 µM (not active). For the same compound, the EC50 [19] was > 35.4 µM (not active).

With `C(=C\c1nc2ccccc2[nH]1)/c1ccccc1` the EC50 [20] was 0.949 µM (active), the EC50 (BJ [21]) was 6.89 µM (active) and the EC50 (BJ [22]) was > 150 µM (inconclusive). The EC50 (BJ [23]) was 8.19 µM (active), the AC50 [24] was 44 µM (active) and the EC50 [25] was 6.84 µM (active). For the same compound, the AC50 (HSP90) was 106 µM (active) and the EC50 [26] was 2.44 µM (active).
